Reference: US20230159597A1 (priority 2020, published 2023)

Tested on: wild-type EBOV Mayinga

SMILES	relative potency	IC50 times higher than both TAT-EBO-PEG4-Chol and TAT-EBO-dPEG4-Chol
CC[C@H](C)[C@H](NC(=O)CNC(=O)[C@H](CO)NC(=O)CNC(=O)[C@H](CCCNC(=N)N)NC(=O)[C@H](CCCNC(=N)N)NC(=O)[C@H](CCCNC(=N)N)NC(=O)[C@H](CCC(N)=O)NC(=O)[C@H](CCCNC(=N)N)NC(=O)[C@H](CCCNC(=N)N)NC(=O)[C@H](CCCCN)NC(=O)[C@H](CCCCN)NC(=O)[C@H](CCCNC(=N)N)NC(=O)CNC(=O)[C@H](Cc1ccc(O)cc1)NC(C)=O)C(=O)N[C@@H](C)C(=O)N[C@@H](C)C(=O)N[C@H](C(=O)N[C@@H](CC(C)C)C(=O)N1CCC[C@H]1C(=O)N[C@@H](Cc1c[nH]cn1)C(=O)N[C@@H](CC(=O)O)C(=O)N[C@@H](Cc1c[nH]c2ccccc12)C(=O)N[C@H](C(=O)N[C@@H](CCCCN)C(=O)N[C@@H](CC(N)=O)C(=O)N[C@H](C(=O)N[C@H](C(=O)N[C@@H](CC(=O)O)C(=O)N[C@@H](CCCCN)C(=O)N[C@H](C(=O)N[C@@H](CC(=O)O)C(=O)N[C@@H](CCC(N)=O)C(=O)N[C@H](C(=O)N[C@H](C(=O)N[C@@H](Cc1c[nH]cn1)C(=O)N[C@@H](CC(=O)O)C(=O)N[C@@H](Cc1ccccc1)C(=O)N[C@H](C(=O)N[C@@H](CC(=O)O)C(=O)N[C@@H](CCCCN)C(=O)NCC(=O)N[C@@H](CO)C(=O)NCC(=O)N[C@@H](CO)C(=O)NCC(=O)N[C@@H](CSCC(=O)O[C@H]1CC[C@@]2(C)C(=CC[C@H]3[C@@H]4CC[C@H]([C@H](C)CCCC(C)C)[C@@]4(C)CC[C@@H]32)C1)C(N)=O)C(C)C)[C@@H](C)CC)[C@@H](C)CC)[C@@H](C)CC)[C@@H](C)O)[C@@H](C)CC)[C@@H](C)O)[C@@H](C)CC [TAT-EBO-IAAILP-Chol]	the most potent peptide we designed so far	
CC[C@H](C)[C@H](NC(=O)CNC(=O)[C@H](CO)NC(=O)CNC(=O)[C@H](CCCNC(=N)N)NC(=O)[C@H](CCCNC(=N)N)NC(=O)[C@H](CCCNC(=N)N)NC(=O)[C@H](CCC(N)=O)NC(=O)[C@H](CCCNC(=N)N)NC(=O)[C@H](CCCNC(=N)N)NC(=O)[C@H](CCCCN)NC(=O)[C@H](CCCCN)NC(=O)[C@H](CCCNC(=N)N)NC(=O)CNC(=O)[C@H](Cc1ccc(O)cc1)NC(C)=O)C(=O)N[C@@H](C)C(=O)N[C@@H](C)C(=O)N[C@H](C(=O)N[C@@H](CC(C)C)C(=O)N1CCC[C@H]1C(=O)N[C@@H](Cc1c[nH]cn1)C(=O)N[C@@H](CC(=O)O)C(=O)N[C@@H](Cc1c[nH]c2ccccc12)C(=O)N[C@H](C(=O)N[C@@H](CCCCN)C(=O)N[C@@H](CC(N)=O)C(=O)N[C@H](C(=O)N[C@H](C(=O)N[C@@H](CC(=O)O)C(=O)N[C@@H](CCCCN)C(=O)N[C@H](C(=O)N[C@@H](CC(=O)O)C(=O)N[C@@H](CCC(N)=O)C(=O)N[C@H](C(=O)N[C@H](C(=O)N[C@@H](Cc1c[nH]cn1)C(=O)N[C@@H](CC(=O)O)C(=O)N[C@@H](Cc1ccccc1)C(=O)N[C@H](C(=O)N[C@@H](CC(=O)O)C(=O)N[C@@H](CCCCN)C(=O)NCC(=O)N[C@@H](CO)C(=O)NCC(=O)N[C@@H](CO)C(=O)NCC(=O)N[C@@H](CSCC(=O)NCCOCCOCCOCCOCCC(=O)O[C@H]1CC[C@@]2(C)C(=CC[C@H]3[C@@H]4CC[C@H]([C@H](C)CCCC(C)C)[C@@]4(C)CC[C@@H]32)C1)C(N)=O)C(C)C)[C@@H](C)CC)[C@@H](C)CC)[C@@H](C)CC)[C@@H](C)O)[C@@H](C)CC)[C@@H](C)O)[C@@H](C)CC [TAT-EBO-IAAILP-PEG4-Chol]		around 10 times
